This test addresses Human RSK2 (Homo sapiens (Human), UniProt P51812). Briefly: Human RSK2 assay (Kinase Glo Plus, residual ATP).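 Also: recombinant human RSK2 phosphorylating a substrate peptide, 90 min at 28 °C, leftover ATP read by luminescence, RLU scaled between no-kinase background and uninhibited kinase controls, 4-parameter fit.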 The class given is biochemical. On the technique in general: In Kinase-Glo more light means more ATP remaining.

For 24 compounds, IC50 results are on record in patent publication US9150577B2, “Heterocyclic compounds containing an indole core” (Boehringer Ingelheim International GmbH, priority 2009, dated 2015).

Human RSK2, sequence (P51812 whole entry): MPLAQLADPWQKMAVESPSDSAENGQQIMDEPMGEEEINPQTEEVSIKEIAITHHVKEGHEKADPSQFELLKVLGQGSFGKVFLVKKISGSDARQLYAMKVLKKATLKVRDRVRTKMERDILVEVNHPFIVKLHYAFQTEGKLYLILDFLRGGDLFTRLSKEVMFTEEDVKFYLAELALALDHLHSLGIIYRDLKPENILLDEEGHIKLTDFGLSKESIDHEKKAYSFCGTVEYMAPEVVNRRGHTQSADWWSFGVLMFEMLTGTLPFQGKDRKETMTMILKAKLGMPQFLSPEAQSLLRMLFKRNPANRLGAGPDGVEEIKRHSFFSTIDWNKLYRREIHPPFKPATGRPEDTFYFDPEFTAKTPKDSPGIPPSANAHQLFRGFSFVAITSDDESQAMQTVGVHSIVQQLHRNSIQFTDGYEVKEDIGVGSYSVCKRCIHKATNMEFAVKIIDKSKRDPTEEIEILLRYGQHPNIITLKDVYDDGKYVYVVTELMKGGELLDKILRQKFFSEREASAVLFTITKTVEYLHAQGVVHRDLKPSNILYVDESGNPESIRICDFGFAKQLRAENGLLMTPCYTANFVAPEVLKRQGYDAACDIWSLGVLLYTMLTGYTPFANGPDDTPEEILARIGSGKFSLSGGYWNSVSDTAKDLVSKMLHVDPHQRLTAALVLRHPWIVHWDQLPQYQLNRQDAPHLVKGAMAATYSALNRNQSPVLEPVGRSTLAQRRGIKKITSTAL

What is called IC50 is the midpoint of a concentration-inhibition curve. Turning to `O=C(Nc1cnn(C2CCOC2)c1)c1ccc2cc3n(c2c1)CCCNC3=O` (stereo not drawn) [Example 26, 1-oxo-N-[1-(tetrahydrofuran-3-yl)-1H-pyrazol-4-yl]-2,3,4,5-tetrahydro-1H-[1,4]diazepino[1,2-a]indole-8-carboxamide], the IC50 turned out to be 27 nM.
With `CN(C)CC(C)(C)Cn1c(NC(=O)c2ccc3cc4n(c3c2)CCCNC4=O)nc2ccccc21` [Example 84, N-{1-[3-(dimethylamino)-2,2-dimethylpropyl]-1H-benzimidazol-2-yl}-1-oxo-2,3,4,5-tetrahydro-1H-[1,4]diazepino[1,2-a]indole-8-carboxamide] the figure was 30 nM.
In the case of `O=C(Nc1ccc2ccccc2n1)c1ccc2cc3n(c2c1)CCCNC3=O` [Example 5, 1-oxo-N-(quinolin-2-yl)-2,3,4,5-tetrahydro-1H-[1,4]diazepino[1,2-a]indole-8-carboxamide], the IC50 amounted to 70 nM.
`O=C(Nc1cnn(CCN2CCOCC2)c1)c1ccc2cc3n(c2c1)CCCNC3=O` [Example 37, N-{1-[2-(morpholin-4-yl)ethyl]-1H-pyrazol-4-yl}-1-oxo-2,3,4,5-tetrahydro-1H-[1,4]diazepino[1,2-a]indole-8-carboxamide]: the IC50 is 84 nM.
Under `CC(C)n1c(NC(=O)c2ccc3cc4n(c3c2)C(C)CCNC4=O)nc2ccccc21` (stereo not drawn) [Example 165, 5-methyl-1-oxo-N-[1-(propan-2-yl)-1H-benzimidazol-2-yl]-2,3,4,5-tetrahydro-1H-[1,4]diazepino[1,2-a]indole-8-carboxamide] stands 1.8 nM; under `N#Cc1cccc(NC(=O)c2ccc3cc4n(c3c2)CCCNC4=O)c1` [Example 6, N-(3-cyanophenyl)-1-oxo-2,3,4,5-tetrahydro-1H-[1,4]diazepino[1,2-a]indole-8-carboxamide], 140 nM.
With `CN(C)CCCn1cc(NC(=O)c2ccc3cc4n(c3c2)CCCNC4=O)cn1` [Example 36, N-{1-[3-(dimethylamino)propyl]-1H-pyrazol-4-yl}-1-oxo-2,3,4,5-tetrahydro-1H-[1,4]diazepino[1,2-a]indole-8-carboxamide], the IC50 stood at 84 nM.
Consider `C[C@@H]1NC(=O)c2cc3ccc(C(=O)Nc4nc5ccccc5n4CCCN(C)C)cc3n2[C@@H]1C` [Example 139, (3S,4R)-N-{1-[3-(dimethylamino)propyl]-1H-benzimidazol-2-yl}-3,4-dimethyl-1-oxo-1,2,3,4-tetrahydropyrazino[1,2-a]indole-7-carboxamide], for which the IC50 is 0.18 nM.
Turning to `O=C(Nc1cccnc1)c1ccc2cc3n(c2c1)CC1(CC1)CNC3=O` [Example 123, 1′-oxo-N-(pyridin-3-yl)-2′,3′-dihydro-1′H-spiro[cyclopropane-1,4′-[1,4]diazepino[1,2-a]indole]-8′-carboxamide], the IC50 was found to be 430 nM.
With `CC(C)(C)c1cc(NC(=O)c2ccc3cc4n(c3c2)CCCNC4=O)no1` [Example 175, N-(5-tert-butyl-1,2-oxazol-3-yl)-1-oxo-2,3,4,5-tetrahydro-1H-[1,4]diazepino[1,2-a]indole-8-carboxamide] the figure was 150 nM; with `O=C(Nc1cccnc1)c1ccc2cc3n(c2c1)CC(F)(F)CNC3=O` [Example 152, 4,4-difluoro-1-oxo-N-(pyridin-3-yl)-2,3,4,5-tetrahydro-1H-[1,4]diazepino[1,2-a]indole-8-carboxamide], 1700 nM.
Under `CC1(C)CNC(=O)c2cc3ccc(C(=O)Nc4cnn(Cc5ccccc5)c4)cc3n21` [Example 134, N-(1-benzyl-1H-pyrazol-4-yl)-4,4-dimethyl-1-oxo-1,2,3,4-tetrahydropyrazino[1,2-a]indole-7-carboxamide] stands 1.8 nM.
Under `O=C(Nc1cnc2ccccc2c1)c1ccc2cc3n(c2c1)CCCNC3=O` [Example 190, 1-oxo-N-(quinolin-3-yl)-2,3,4,5-tetrahydro-1H-[1,4]diazepino[1,2-a]indole-8-carboxamide] stands 34 nM; under `C[C@H]1CNC(=O)c2cc3ccc(C(=O)Nc4nc5ccccc5n4CCCN(C)C)cc3n2[C@H]1C` (relative stereo) [Example 92, N-{1-[3-(dimethylamino)propyl]-1H-benzimidazol-2-yl}-cis-4,5-dimethyl-1-oxo-2,3,4,5-tetrahydro-1H-[1,4]diazepino[1,2-a]indole-8-carboxamide], 2 nM; under `O=C(Nc1cccc(N2CCOCC2)c1)c1ccc2cc3n(c2c1)CCCNC3=O` [Example 7, N-[3-(morpholin-4-yl)phenyl]-1-oxo-2,3,4,5-tetrahydro-1H-[1,4]diazepino[1,2-a]indole-8-carboxamide], 60 nM.
On to `CC(=O)N1CCC(n2c(NC(=O)c3ccc4cc5n(c4c3)CCCNC5=O)nc3ccccc32)CC1` [Example 78, N-[1-(1-acetylpiperidin-4-yl)-1H-benzimidazol-2-yl]-1-oxo-2,3,4,5-tetrahydro-1H-[1,4]diazepino[1,2-a]indole-8-carboxamide], for which the IC50 was 58 nM.
As to `CC1(C)CNC(=O)c2cc3ccc(C(=O)Nc4cn[nH]c4)cc3n2C1` [Example 16, 4,4-dimethyl-1-oxo-N-(1H-pyrazol-4-yl)-2,3,4,5-tetrahydro-1H-[1,4]diazepino[1,2-a]indole-8-carboxamide], the IC50 was determined as 2500 nM.
With `Cn1ccnc1NC(=O)c1ccc2cc3n(c2c1)CCCNC3=O` [Example 109, N-(1-methyl-1H-imidazol-2-yl)-1-oxo-2,3,4,5-tetrahydro-1H-[1,4]diazepino[1,2-a]indole-8-carboxamide] the figure was 2200 nM; with `N#Cc1ccc2[nH]c(NC(=O)c3ccc4cc5n(c4c3)CCCNC5=O)nc2c1` [Example 41, N-(5-cyano-1H-benzimidazol-2-yl)-1-oxo-2,3,4,5-tetrahydro-1H-[1,4]diazepino[1,2-a]indole-8-carboxamide], 4.9 nM; with `CC(C)n1c(NC(=O)c2ccc3cc4n(c3c2)[C@@H](C)[C@@H](C)NC4=O)nc2ccccc21` (relative stereo) [Example 67, cis-3,4-dimethyl-1-oxo-N-[1-(propan-2-yl)-1H-benzimidazol-2-yl]-1,2,3,4-tetrahydropyrazino[1,2-a]indole-7-carboxamide], 3.4 nM.
With `O=C(Nc1nc2ccccc2n1CCN1CCOCC1)c1ccc2cc3n(c2c1)CCCNC3=O` [Example 104, N-{1-[2-(morpholin-4-yl)ethyl]-1H-benzimidazol-2-yl}-1-oxo-2,3,4,5-tetrahydro-1H-[1,4]diazepino[1,2-a]indole-8-carboxamide] the figure was 54 nM.
With `Cc1cc(C)cc(Cn2cc(NC(=O)c3ccc4cc5n(c4c3)CCCNC5=O)cn2)c1` [Example 28, N-[1-(3,5-dimethylbenzyl)-1H-pyrazol-4-yl]-1-oxo-2,3,4,5-tetrahydro-1H-[1,4]diazepino[1,2-a]indole-8-carboxamide], the half-inhibitory concentration (IC50) was determined as 1.9 nM.
In the case of `C[C@H]1CNC(=O)c2cc3ccc(C(=O)Nc4cccnc4)cc3n2[C@H]1C` (relative stereo) [Example 150, Cis-4,5-dimethyl-1-oxo-N-(pyridin-3-yl)-2,3,4,5-tetrahydro-1H-[1,4]diazepino[1,2-a]indole-8-carboxamide], the IC50 worked out at 240 nM.
As for `C[C@H]1NC(=O)c2cc3ccc(C(=O)Nc4nc5ccccc5n4CCCN(C)C)cc3n2[C@H]1C` [Example 141, (3R,4S)-N-{1-[3-(dimethylamino)propyl]-1H-benzimidazol-2-yl}-3,4-dimethyl-1-oxo-1,2,3,4-tetrahydropyrazino[1,2-a]indole-7-carboxamide], the IC50 turned out to be 13.7 nM.
